Legend:
Assay in all cases: relative viability (nuclei count vs DMSO), 5 days (fraction); higher = more cells survive
[1] = compound: NC(=O)[C@@H](CCC(F)(F)F)N(Cc1ccc(-c2ncon2)cc1F)S(=O)(=O)c1ccc(Cl)cc1 [Avagacestat] + Nc1ncn([C@H]2C[C@H](O)[C@@H](CO)O2)c(=O)n1 [Decitabine] (partner 2 µM)
Summary of the method: (§1)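 Lung cancer cell lines in 1536-well plates were dosed by pin tool the day after seeding, either with one drug alone or with a fixed anchor-drug dose plus five library-drug doses (not always all listed) in √10 steps. After 5 days, cells were fixed and their nuclei stained in one step (final 0.05% Triton X-100, 1% formaldehyde, 1 ug/ml Hoechst), then counted on 4× images. Relative viability is the nuclei count in treated wells divided by that in vehicle wells. Values are medians of duplicate plates.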

[2] = compound: NC(=O)[C@@H](CCC(F)(F)F)N(Cc1ccc(-c2ncon2)cc1F)S(=O)(=O)c1ccc(Cl)cc1 [Avagacestat] + CS(=O)(=O)CCNCc1ccc(-c2ccc3ncnc(Nc4ccc(OCc5cccc(F)c5)c(Cl)c4)c3c2)o1 [Lapatinib] (partner 2 µM)
Summary of the method: as §1

[3] = compound: NC(=O)[C@@H](CCC(F)(F)F)N(Cc1ccc(-c2ncon2)cc1F)S(=O)(=O)c1ccc(Cl)cc1 [Avagacestat] + Cc1cc(Nc2cc(N3CCN(C)CC3)nc(Sc3ccc(NC(=O)C4CC4)cc3)n2)n[nH]1 [Tozasertib] (partner 0.1 µM)
Summary of the method: as §1

[4] = compound: NC(=O)[C@@H](CCC(F)(F)F)N(Cc1ccc(-c2ncon2)cc1F)S(=O)(=O)c1ccc(Cl)cc1 [Avagacestat] + C[C@@H](Oc1cc(-c2cnn(C3CCNCC3)c2)cnc1N)c1c(Cl)ccc(F)c1Cl [Crizotinib] (partner 1 µM)
Summary of the method: as §1

| Cell Line | relative viability ([1]; first compound 0.08 µM) | relative viability ([1]; first compound 0.253 µM) | relative viability ([1]; first compound 0.8 µM) | relative viability ([1]; first compound 2.53 µM) | relative viability ([1]; first compound 8 µM) | relative viability ([2]; first compound 0.08 µM) | relative viability ([2]; first compound 0.253 µM) | relative viability ([2]; first compound 0.8 µM) | relative viability ([2]; first compound 2.53 µM) | relative viability ([2]; first compound 8 µM) | relative viability ([3]; first compound 0.08 µM) | relative viability ([3]; first compound 0.253 µM) | relative viability ([3]; first compound 0.8 µM) | relative viability ([3]; first compound 2.53 µM) | relative viability ([3]; first compound 8 µM) | relative viability ([4]; first compound 0.08 µM) | relative viability ([4]; first compound 0.253 µM) | relative viability ([4]; first compound 0.8 µM) | relative viability ([4]; first compound 2.53 µM) | relative viability ([4]; first compound 8 µM) |
| --- | --- | --- | --- | --- | --- | --- | --- | --- | --- | --- | --- | --- | --- | --- | --- | --- | --- | --- | --- | --- |
| PC-3 [JPC-3] | 0.857 | 0.808 | 0.824 | 0.789 | 0.87 | 0.485 | 0.541 | 0.472 | 0.479 | 0.475 | 1.01 | 0.99 | 1.08 | 0.943 | 0.826 | 1.15 | 1.25 | 1.16 | 1.05 | 0.993 |
| PC-14 | 0.219 | 0.244 | 0.218 | 0.272 | 0.244 | 0.336 | 0.329 | 0.476 | 0.236 | 0.315 | 0.733 | 0.859 | 0.925 | 0.692 | 0.633 | 0.995 | 0.97 | 0.936 | 1.04 | 0.829 |
| RERF-LC-KJ | 0.686 | 0.705 | 0.622 | 0.686 | 0.645 | 1.12 | 0.887 | 0.871 | 0.889 | 0.751 | 0.5 | 0.471 | 0.466 | 0.418 | 0.379 | 0.799 | 0.839 | 0.924 | 0.792 | 0.761 |
| SK-LU-1 | 0.66 | 0.638 | 0.699 | 0.53 | 0.552 | 0.956 | 0.852 | 0.889 |  | 0.73 | 0.317 | 0.318 | 0.329 | 0.269 | 0.31 | 0.843 | 0.858 | 0.946 | 0.786 | 0.753 |
| SK-MES-1 | 0.367 | 0.415 | 0.373 | 0.329 | 0.311 | 0.476 | 0.496 | 0.531 | 0.444 | 0.423 | 1.13 | 1.23 | 1.07 | 0.874 | 0.783 | 0.943 | 1.06 | 0.97 | 0.902 | 0.915 |
| SW 1573 | 0.539 | 0.582 | 0.664 | 0.446 | 0.59 | 1.19 | 1.21 | 0.982 | 1.1 | 1.09 | 0.169 | 0.195 | 0.173 | 0.217 | 0.176 | 0.844 | 0.905 | 0.777 | 0.816 | 0.709 |
| UMC-11 | 0.657 | 0.57 | 0.585 | 0.602 | 0.597 | 1.17 | 1 | 1.26 | 1.1 | 0.921 | 0.206 | 0.225 | 0.201 | 0.195 | 0.202 | 0.632 | 0.664 | 0.749 | 0.582 | 0.585 |
